Tests used:
[1] = test system: ZDF rats; test: Evaluation of anti-diabetic action in ZDF rat (blood glucose level); type: in vivo; settings: male ZDF rat at 16 weeks of age; mixed diet 0.03% compound from 8 weeks of age (dose 20.9 mg/kg body weight); mean±SD; control group 652.8±23.10
Procedure: Male ZDF rats (5-week-old, Charles River Japan) were reared while allowing free-feeding of both diet and water. As the feed, a standard laboratory diet (MF; Oriental Yeast Co, Tokyo, Japan) and a mixed diet (the aforementioned standard laboratory diet containing 0.03% of compound (a)) were used. After acclimation rearing for 1 week, the body weight and glycated hemoglobin were measured, and the ZDF rats were divided into 2 groups (8 rats/group) such that the measurement values became uniform at 8 weeks of age. For the control group, the aforementioned standard laboratory diet was given, and for the compound (a) administration group, the aforementioned mixed diet was given from 8 weeks of age to 19 weeks of age.
At 16 weeks of age, the food intake in 24 hr was measured. The rats were reared at 4 rats/cage, the total amount of decrease in the diet in a can set to each cage was divided by 4 and taken as the daily food intake per rat. In addition, the dose of compound (a) was calculated from the food intake and the content of compound (a) in the mixed diet.
At 16 weeks of age, moreover, the blood was drawn from the rat tail vein using heparin as an anticoagulant. The blood sample was preserved on ice, and the plasma after centrifugation was preserved at −20° C. until measurement. The blood glucose level was measured by a biochemical automatic analyzer (Beckman Coulter, Shyncron CX5Δ).

[2] = test system: Crj: CD(SD)IGS rats; test: Evaluation of hemoglobin increasing action; type: in vivo, rat; settings: female Crj: CD(SD)IGS rats, 600 mg/kg/day oral, 4 weeks, mean±SD
Procedure: (1) After acclimation rearing for 1 week, female Crj: CD(SD)IGS rats (5-week-old) were divided into 2 groups (10 rats/group). (2) For one group, a suspension of compound (a), obtained by suspending compound (a) in 0.5% aqueous methylcellulose solution, was orally administered at 10 ml/kg body weight/day (dose of compound (a): 600 mg/kg body weight/day) once a day. For the other group, 0.5% aqueous methylcellulose solution was orally administered at 10 ml/kg body weight/day in the same manner, and used as the control group. (3) After 4-week administration under free-feeding conditions, the rats were fasted for 20 hr, and the whole blood was collected from the abdominal artery into a blood collection vessel (SP-U0501EM, Sekisui Chemical), and the red blood cell count, hematocrit, hemoglobin concentration, and MCH (average red blood cell hemoglobin) of the rat blood were measured. The numerical values in the Table show mean±standard deviation.

[3] = molecular target: T1, human recombinant ferrochelatase (Homo sapiens, UniProt P22830); test: Measurement of ferrochelatase activity (zinc-protoporphyrin IX production, fluorescence); type: biochemical; settings: compound 3 μM, mean±SD, n=8, control group 0.377 ± 0.010
T1 construct: attached to the N terminal of the human FeCh Mature region (55th-423rd amino acid residues); Nus-Tag (N, cleaved yes); His-Tag (N, cleaved yes); made in house; host or cells: Escherichia coli BL21 (DE3)
T1 sequence (P22830 55-423): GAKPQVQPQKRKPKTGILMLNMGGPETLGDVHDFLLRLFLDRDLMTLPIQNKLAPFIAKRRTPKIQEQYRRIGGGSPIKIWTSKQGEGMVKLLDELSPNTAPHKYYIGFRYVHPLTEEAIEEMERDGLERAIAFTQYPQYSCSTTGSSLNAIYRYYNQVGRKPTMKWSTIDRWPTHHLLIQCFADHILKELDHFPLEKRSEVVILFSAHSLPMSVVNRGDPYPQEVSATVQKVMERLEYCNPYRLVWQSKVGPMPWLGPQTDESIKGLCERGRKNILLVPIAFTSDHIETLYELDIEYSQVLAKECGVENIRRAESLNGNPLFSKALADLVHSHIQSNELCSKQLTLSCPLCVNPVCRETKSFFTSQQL
Procedure: Using human FeCh gene (Invitrogen) as a template, PCR was performed using the following primer 1 (SEQ ID NO: 3) and primer 2 (SEQ ID NO: 4). Pyrobest DNA polymerase (TAKARA SHUZO CO., LTD.) was used for the PCR, and extension reactions were performed under the conditions of (1) 95° C. 1 min, then (2) 30 cycles of 96° C. 15 sec, 60° C. 30 sec, 72° C. 90 sec, then (3) 72° C. for 7 min. After the reaction, the amplification product was inserted into pCR-Blunt II-TOPO (Invitrogen) and cloned. The obtained plasmid was digested with Bgl II and Xho I to recover inserted fragments. The fragments were inserted into the Bam HI/Xho I site of pET43.1a (Novagen) to give an expression vector pET43.1a-hFeCh encoding a protein with Nus-Tag and His-Tag attached to the N terminal of the human FeCh Mature region (55th-423rd amino acid residues).
The expression vector pET43.1a-hFeCh constructed in the above-mentioned A1 was introduced into Escherichia coli BL21 (DE3) Competent Cell (Stratagene) to give an expression strain. […]
The cells obtained in the above-mentioned A2 were suspended in Blue column Buffer (10 mM Tris-HCl (pH 8.1), 0.5 M NaCl, 10% Glycerol, 1% Triton X-100, 5 mM 2-Mercaptoethanol (2-ME), 250 ml) containing Protease Cocktail (Complete, EDTA-free; Roche). […] As a result of protein quantification (CBB method; Pierce), the total protein amount of about 8 mg of human FeCh was obtained. […]

[4] = test system: cytochrome c oxidase activity of high glucose-treated HepG2 cell; test: Cytochrome c oxidase activity in high glucose treated HepG2 cell; type: cell-based, human; settings: compound 3 μM, 3 days, high glucose (4.5 g/L) HepG2, mean±SD, n=4
Procedure: (1) Human liver cancer cell-derived cell line HepG2 was passaged in low glucose (1 g/L) Eagle Modified Dulbecco's Medium supplemented with 10% fetal bovine serum. The cells adjusted to 3×10^5/mL using the same medium were plated on a 96 well plate and precultured overnight. The aforementioned medium was changed to high glucose (4.5 g/L) Eagle Modified Dulbecco's Medium supplemented with 5 μg/mL transferrin, compound (a) or compound (l) was added and the cell culture was continued for 3 days. The same experiment was performed without using compound (a) and compound (l) as the control group. […] (3) The DNA content was measured using PicoGreen dsDNA Quantitation Kit (Molecular Probes P-7589), and used as an index of cell number. The cytochrome c oxidase activity was determined using the Cytochrome c oxidase Assay kit (Sigma CYTOC-OX1) modified to fit a 96 well plate protocol. […] The time-course changes in the absorbance were measured by determining the absorbance at 550 nm at a delta soft kinetic mode once in 15 sec for 6 min from immediately after the start of the reaction. The cytochrome c oxidase activity was calculated as an absorbance change rate in 5 min from 1 to 6 min. […]

[5] = test system: Wistar Fatty rats; test: Evaluation of anti-diabetic action in Wistar Fatty rats (glycosylated hemoglobin); type: in vivo, rat; settings: male Wistar Fatty rats, mean±SD, n=5-6
Procedure: Lean rats in the same lot as the male Wistar Fatty rats (26 to 27-week-old; TAKEDA RABICS, lot0402) were used. Blood samples were collected from Wistar Fatty rats in the morning under non-fasting, and glycosylated hemoglobin % value (GHB %) and plasma component were measured. GHB % was measured by Tosoh automatic glycohemoglobin analyzer HLC-723 GHbV Alc2.2. The Plasma component was measured by Beckman Synchron system CX5 delta. The rats showing a GHB % value of not less than 7.5% and a high PG value were divided into 2 groups. For one group, a suspension of compound (1), obtained by suspending compound (l) in 0.5% aqueous methylcellulose solution, (dose of compound (l): 10 mg/kg body weight) was orally administered repeatedly once a day for 20 days. For the other group, 0.5% aqueous methylcellulose solution was orally administered in the same manner, and used as the control group. On the day of completion of the administration, the blood samples were collected again, and GHB % was measured. The numerical values in the Table show mean±standard deviation of n=5-6 (n is the number of rats).

Row | ferrochelatase activity [3] | Compound | blood glucose level [1] | hemoglobin ([2]; control group 15.3 ± 0.4) | MCH (average red blood cell hemoglobin) ([2]; control group 19.6 ± 0.4) | hematocrit ([2]; control group 42.5 ± 1.1) | red blood cell count ([2]; control group 777 ± 21) | Cytochrome c oxidase activity ([4]; Table 5, control group 0.649 ± 0.044) | Cytochrome c oxidase activity ([4]; Table 6, control group 0.743 ± 0.043) | Glycosylated hemoglobin value, after drug administration ([5]; 10 mg/kg oral once a day for 20 days, control group 7.7 ± 0.2) | Glycosylated hemoglobin value, amount of change ([5]; 10 mg/kg oral once a day for 20 days, control group −0.5 ± 0.2) | Glycosylated hemoglobin value, before drug administration ([5]; baseline before 10 mg/kg oral once a day for 20 days)
1 | 0.609 ± 0.008 Em 590 nm | CCOP(=O)(OCC)OCc1ccc(NC(=O)/C=C/c2cnn(C)c2-c2ccc(F)cc2)cc1 [compound (a), diethyl [4-({(2E)-3-[5-(4-fluorophenyl)-1-methyl-1H-pyrazol-4-yl]prop-2-enoyl}amino)benzyl]phosphate] | 271.7 ± 36.5 mg/dL | 16.1 ± 0.7 g/dL | 20.7 ± 0.5 pg | 44.7 ± 1.9 % | 779 ± 32 ×10^4/μl | 0.757 ± 0.029 units/μg DNA | – | – | – | –
2 | 0.655 ± 0.009 Em 590 nm | Cn1ncc(/C=C/C(=O)Nc2ccc(CCc3nnco3)cc2)c1-c1ccc(F)cc1 [compound (l), (2E)-3-[5-(4-fluorophenyl)-1-methyl-1H-pyrazol-4-yl]-N-{4-[2-(1,3,4-oxadiazol-2-yl)ethyl]phenyl}acrylamide] | – | – | – | – | – | – | 0.990 ± 0.088 units/(μg DNA | 6.9 ± 0.4 % | −1.3 ± 0.3 % | 8.2 ± 0.5%

Reference: patent publication US20100029724A1, “SCREENING METHOD” (Takeda Pharmaceutical Company Limited, priority 2006, published 2010)
